Legend:
Type in all cases: cell-based
[1] = tested on: Rice brown spot fungus (Cochliobolus miyabeanus); assay: Test Example 6: control test against rice brown spot fungus, titer plate growth; details: 150 ppm in DMSO, 1 μL + 150 μL YB liquid medium; 23° C., 3 days; absorbance at 550 nm
Description: (§1) The untreated groups in the Test Example 3, the Test Example 5 and the Test Example 6 represents a treated group in which the procedures are carried out under the same conditions as those described in each of Test Examples except that DMSO is dispensed in place of a diluted DMSO solution containing the Present compound. The untreated groups in the Test Example 7 and the Test Example 15 represents a test in which the procedures are carried out under the same conditions as those described in each of the Test Examples except that DMSO is dispensed in place of a diluted DMSO solution containing the present compound. Also, the untreated groups in the Test Example 8, the Test Example 9, the Test Example 10 and the Test Example 11 represents a test in which a diluted aqueous solution of the formulation containing the present compound isn't sprayed.
The present compound 77 was diluted with DMSO so as to contain 150 ppm, and 1 μL of the dilution solutions were dispensed into titer plate (96 well), and thereafter, thereto was then dispensed 150 μL of YB liquid medium to which conidia of Cochliobolus miyabeanus were inoculated in advance. This plate was cultured at 23° C. for 3 days, thereby allowing Cochliobolus miyabeanus to undergo proliferation, and the absorbance at 550 nm of each well of the titer plate was then measured to determine a degree of growth of the Cochliobolus miyabeanus.

[2] = tested on: Peach scab fungus (Cladosporium carpophilum); assay: Test Example 5: control test against peach scab fungus, titer plate growth; details: 150 ppm in DMSO, 1 μL + 150 μL PDB broth; 18° C., 5 days; absorbance at 550 nm
Description: as §1, with “Also, the untreated groups in the Test Example 8, the Test Example 9, the Test Example 10 and the Test Example 11 represents a test in which a diluted aqueous solution of the formulation containing the present compound isn't sprayed.” left out
The present compound 77 was diluted with DMSO so as to contain 150 ppm, and 1 μL of the dilution solutions were dispensed into titer plate (96 well), and thereafter, thereto was then dispensed 150 μL of a potato dextrose broth (PDB broth) to which conidia of Cladosporium carpophilum were inoculated in advance. This plate was cultured at 18° C. for 5 days, thereby allowing Cladosporium carpophilum to undergo proliferation, and the absorbance at 550 nm of each well of the titer plate was then measured to determine a degree of growth of the Cladosporium carpophilum.

[3] = tested on: Barley scald fungus (Rhynchosporium secalis); assay: Test Example 3: control test against barley scald fungus, titer plate growth; details: 150 ppm in DMSO, 1 μL + 150 μL PDB broth; 18° C., 7 days; absorbance at 550 nm
Description: as §1, with “Also, the untreated groups in the Test Example 8, the Test Example 9, the Test Example 10 and the Test Example 11 represents a test in which a diluted aqueous solution of the formulation containing the present compound isn't sprayed.” left out
The present compound 77 was diluted with DMSO so as to contain 150 ppm, and 1 μL of the dilution solutions were dispensed into titer plate (96 well), and thereafter, thereto was then dispensed 150 μL of a potato dextrose broth (PDB broth) to which conidia of Rhynchosporium secalis were inoculated in advance. This plate was cultured at 18° C. for 7 days, thereby allowing Rhynchosporium secalis to undergo proliferation, and the absorbance at 550 nm of each well of the titer plate was then measured to determine a degree of growth of the Rhynchosporium secalis.

Measured: growth in the treated well compared to the growth in an untreated well

O=S(=O)(c1cccc(-c2cc(F)c(Cl)c(F)c2)c1)c1ccncn1 [compound 77]
≤ 50%: [1] | [2] | [3]

From US20250212876A1, “METHOD FOR CONTROLLING PLANT DISEASES” (SUMITOMO CHEMICAL COMPANY, LIMITED, priority 2022, published 2025)
